According to PubChem BioAssay (NCI):
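Where inhibition never reached the appropriate level, the endpoint shown equals the highest concentration tested. Otherwise, values were interpolated linearly from a five-concentration, 48-hour dose response in 96-well plates. GI50 marks 50% less growth. At the TGI there is no net growth.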

Tests used:
Assay in all cases: inhibition of tumour cell growth, NCI panel, 48 h
SK-MEL-5 melanoma = test system: SK-MEL-5 melanoma
SNB-19 CNS = test system: SNB-19 CNS
M14 melanoma = test system: M14 melanoma
OVCAR-5 ovarian = test system: OVCAR-5 ovarian
NCI-H460 lung = test system: NCI-H460 lung
HOP-92 NSCLC = test system: HOP-92 NSCLC
K-562 leukemia = test system: K-562 leukemia
A549 NSCLC = test system: A549 NSCLC
UACC-257 melanoma = test system: UACC-257 melanoma
HT29 colon = test system: HT29 colon
ACHN renal = test system: ACHN renal
MDA-MB-468 breast = test system: MDA-MB-468 breast
U251 CNS = test system: U251 CNS
UACC-62 melanoma = test system: UACC-62 melanoma
EKVX NSCLC = test system: EKVX NSCLC
HCC-2998 colon = test system: HCC-2998 colon
SK-MEL-2 melanoma = test system: SK-MEL-2 melanoma
CAKI-1 renal = test system: CAKI-1 renal
MDA-MB-435 = test system: MDA-MB-435
SF-295 CNS = test system: SF-295 CNS
786-0 renal = test system: 786-0 renal
T-47D breast = test system: T-47D breast
RXF 393 renal = test system: RXF 393 renal
MALME-3M melanoma = test system: MALME-3M melanoma
HCT-15 colon = test system: HCT-15 colon
BT-549 breast = test system: BT-549 breast
COLO 205 colon = test system: COLO 205 colon
KM12 colon = test system: KM12 colon
OVCAR-4 ovarian = test system: OVCAR-4 ovarian
SK-MEL-28 melanoma = test system: SK-MEL-28 melanoma
RPMI-8226 leukemia = test system: RPMI-8226 leukemia
DU-145 prostate = test system: DU-145 prostate
A498 renal = test system: A498 renal
NCI-H522 lung = test system: NCI-H522 lung
SR leukemia = test system: SR leukemia
NCI-H226 lung = test system: NCI-H226 lung
MCF7 breast = test system: MCF7 breast
HOP-62 NSCLC = test system: HOP-62 NSCLC
SF-539 CNS = test system: SF-539 CNS
OVCAR-8 ovarian = test system: OVCAR-8 ovarian
MDA-MB-231 breast = test system: MDA-MB-231 breast
SW-620 colon = test system: SW-620 colon
CCRF-CEM leukemia = test system: CCRF-CEM leukemia
NCI-H23 lung = test system: NCI-H23 lung
SF-268 CNS = test system: SF-268 CNS
PC-3 prostate = test system: PC-3 prostate
OVCAR-3 ovarian = test system: OVCAR-3 ovarian
SK-OV-3 ovarian = test system: SK-OV-3 ovarian
SN12C renal = test system: SN12C renal
IGROV1 ovarian = test system: IGROV1 ovarian
HCT-116 colon = test system: HCT-116 colon
UO-31 renal = test system: UO-31 renal

Cc1cc(=O)oc2cc(OCCCOc3ccc(/C=C/C(=O)Nc4ccccc4N)cc3)ccc12
GI50 (SK-MEL-5 melanoma): 0.716 µM | TGI (SK-MEL-5 melanoma): 2.06 µM | GI50 (SNB-19 CNS): 3.72 µM | TGI (SNB-19 CNS): > 100 µM | GI50 (M14 melanoma): 3.16 µM | TGI (M14 melanoma): > 100 µM | GI50 (OVCAR-5 ovarian): 4.34 µM | TGI (OVCAR-5 ovarian): > 100 µM | GI50 (NCI-H460 lung): 1.79 µM | TGI (NCI-H460 lung): > 100 µM | GI50 (HOP-92 NSCLC): 3.91 µM | TGI (HOP-92 NSCLC): > 100 µM | GI50 (K-562 leukemia): 0.817 µM | TGI (K-562 leukemia): > 100 µM | GI50 (A549 NSCLC): 3.31 µM | TGI (A549 NSCLC): > 100 µM | GI50 (UACC-257 melanoma): 3.24 µM | TGI (UACC-257 melanoma): > 100 µM | GI50 (HT29 colon): 4.8 µM | TGI (HT29 colon): > 100 µM | GI50 (ACHN renal): 4.5 µM | TGI (ACHN renal): > 100 µM | GI50 (MDA-MB-468 breast): 1.94 µM | TGI (MDA-MB-468 breast): 8.14 µM | GI50 (U251 CNS): 5.49 µM | TGI (U251 CNS): > 100 µM | GI50 (UACC-62 melanoma): 2.79 µM | TGI (UACC-62 melanoma): > 100 µM | GI50 (EKVX NSCLC): 3.5 µM | TGI (EKVX NSCLC): > 100 µM | GI50 (HCC-2998 colon): 3.17 µM | TGI (HCC-2998 colon): > 100 µM | GI50 (SK-MEL-2 melanoma): 3.78 µM | TGI (SK-MEL-2 melanoma): > 100 µM | GI50 (CAKI-1 renal): 3.38 µM | TGI (CAKI-1 renal): > 100 µM | GI50 (MDA-MB-435): 4.42 µM | TGI (MDA-MB-435): > 100 µM | GI50 (SF-295 CNS): 3.42 µM | TGI (SF-295 CNS): > 100 µM | GI50 (786-0 renal): 3.13 µM | TGI (786-0 renal): > 100 µM | GI50 (T-47D breast): 0.749 µM | TGI (T-47D breast): > 100 µM | GI50 (RXF 393 renal): 4.16 µM | TGI (RXF 393 renal): > 100 µM | GI50 (MALME-3M melanoma): 3.27 µM | TGI (MALME-3M melanoma): > 100 µM | GI50 (HCT-15 colon): 2.4 µM | TGI (HCT-15 colon): > 100 µM | GI50 (BT-549 breast): 0.923 µM | TGI (BT-549 breast): 3.27 µM | GI50 (COLO 205 colon): 2.14 µM | TGI (COLO 205 colon): 5.81 µM | GI50 (KM12 colon): 3.9 µM | TGI (KM12 colon): > 100 µM | GI50 (OVCAR-4 ovarian): 2.82 µM | TGI (OVCAR-4 ovarian): > 100 µM | GI50 (SK-MEL-28 melanoma): 3.6 µM | TGI (SK-MEL-28 melanoma): > 100 µM | GI50 (RPMI-8226 leukemia): 0.276 µM | TGI (RPMI-8226 leukemia): 2.35 µM | GI50 (DU-145 prostate): 4.71 µM | TGI (DU-145 prostate): > 100 µM | GI50 (A498 renal): 2.34 µM | TGI (A498 renal): 6.7 µM | GI50 (NCI-H522 lung): 2.79 µM | TGI (NCI-H522 lung): > 100 µM | GI50 (SR leukemia): 1.81 µM | TGI (SR leukemia): > 100 µM | GI50 (NCI-H226 lung): 2.45 µM | TGI (NCI-H226 lung): > 100 µM | GI50 (MCF7 breast): 0.702 µM | TGI (MCF7 breast): > 100 µM | GI50 (HOP-62 NSCLC): 4.93 µM | TGI (HOP-62 NSCLC): > 100 µM | GI50 (SF-539 CNS): 2.22 µM | TGI (SF-539 CNS): > 100 µM | GI50 (OVCAR-8 ovarian): 4.18 µM | TGI (OVCAR-8 ovarian): > 100 µM | GI50 (MDA-MB-231 breast): 3.33 µM | TGI (MDA-MB-231 breast): > 100 µM | GI50 (SW-620 colon): 3.6 µM | TGI (SW-620 colon): > 100 µM | GI50 (CCRF-CEM leukemia): 0.31 µM | TGI (CCRF-CEM leukemia): 1.91 µM | GI50 (NCI-H23 lung): 3.64 µM | TGI (NCI-H23 lung): > 100 µM | GI50 (SF-268 CNS): 1.95 µM | TGI (SF-268 CNS): > 100 µM | GI50 (PC-3 prostate): 3.07 µM | TGI (PC-3 prostate): > 100 µM | GI50 (OVCAR-3 ovarian): 2.51 µM | TGI (OVCAR-3 ovarian): > 100 µM | GI50 (SK-OV-3 ovarian): 5.29 µM | TGI (SK-OV-3 ovarian): > 100 µM | GI50 (SN12C renal): 2.22 µM | TGI (SN12C renal): > 100 µM | GI50 (IGROV1 ovarian): 1.28 µM | TGI (IGROV1 ovarian): > 100 µM | GI50 (HCT-116 colon): 2.24 µM | TGI (HCT-116 colon): > 100 µM | GI50 (UO-31 renal): 0.775 µM | TGI (UO-31 renal): > 100 µM
